From patent publication US10155726B2, “Substituted pyridines and uses thereof” (PELOTON THERAPEUTICS, INC., priority 2015, dated 2018)
Entries after “also recorded” stand apart in the source; their conditions may differ.

Key:
786-O-Hif-Luc cells = experiment: Luciferase Assay; assay type: cell-based; conditions: about 24 hours
Description: 786-O-Hif-Luc single clone cells were obtained by infecting 786-O cells (ATCC® CRL-1932™) with commercial lentivirus that delivers a luciferase gene driven by multiple HIF responsive elements (Cignal Lenti HIF Reporter (luc): CLS-007L, Qiagen) at Multiplicity of Infection (MOI) of 25 for 24 hours. […] A pool of infected cells were then selected against 2 μg/mL of puromycin (P8833, Sigma) for 10 days followed by limited dilution to select single clones. […] For the luciferase assay, about 7500 786-O-Hif-Luc cells in 90 μL growth medium were seeded into each well of a 96-well white opaque plate (08-771-26, Fisher scientific) a day before treatment with the layout presented in FIG. 4. […] Each concentration was tested in triplicate. After about 24 hours, luciferase activity was determined using ONE-Glo Luciferase Assay Reagent (E6110, Promega) following the manufacturer's recommended procedure. EC50 were calculated using Dotmatics software.

[1] = target: T1, HIF-2α HIS TAG-PASB Domain (Homo sapiens, UniProt Q99814); experiment: HIF-2α Scintillation Proximity Assay (SPA); assay type: binding; conditions: displacement of tritiated probe from HIF-2α PAS-B domain
T1 construct: 100 nM HIF-2α HIS TAG-PASB Domain
T1 sequence (Q99814 239-348): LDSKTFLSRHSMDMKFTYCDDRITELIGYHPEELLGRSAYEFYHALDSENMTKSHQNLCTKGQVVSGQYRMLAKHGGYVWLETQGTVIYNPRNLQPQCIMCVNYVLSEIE
Description: The total assay volume was about 100 μL in the following configuration: 2 μL compound in 100% DMSO, 88 μL buffer with protein and probe and 10 μL of SPA beads. […] The percent inhibition was determined and IC50 values were calculated using the Dotmatics system based on the following equation: % inhibition=[(high control−sample)/(high control−low control)]×100.

786-O cells = experiment: VEGF ELISA Assay; assay type: cell-based; conditions: Homo sapiens, 786-0; VEGF concentration in culture medium of 786-O cells
Description: About 7500 786-O cells in 180 μL of growth medium were seeded into each well of a 96-well, white, clear bottom plate (07-200-566, Fisher Scientific) on day one in the layout presented in FIG. 3. […] Each concentration was plated in duplicate. About 20 hours later, medium was removed by suction and each well was supplied with 180 μL of growth medium. About 20 μl freshly-made 10× compound stocks were added to each well. […] The EC50 was calculated by GraphPad Prism using the dose-response-inhibition (four parameter) equation. The cell-seeded plate was then subjected to CellTiter-Glo luminescence cell viability assay (Promega) by adding 50 μL of Celltiter Glo reagent into each well and shaking the plate for 8 minutes at 550 rpm (Thermomixer R, Eppendorf) then the luminescence signal immediately read in a plate reader (3 second delay, 0.5 second/well integration time, Synergy 2 multi Detection Microplate reader).

human VEGFA = experiment: PK/PD study: human VEGFA in plasma of 786-O xenograft bearing mice by ELISA; assay type: in vivo, SCID/Biege mice; conditions: 10 mg/kg oral gavage, six doses at 12 hour interval, 12 hours post last dose
Description: (§1) When the xenografts reached about 750 mm^3 in size, the tumor bearing mice were randomly grouped into four groups (n=3). […] All animals were sacrificed at 12 hours post last dose. Tumors and plasma were collected from each animal. Total RNA was extracted from the tumors, and the expression levels of putative HIF-2α regulated genes were determined by qRT-PCR. […] The level of human VEGFA was assessed using an ELISA assay.

[2] = test system: HIF-2α target genes VEGF, PAI-1 and CCND1; experiment: PK/PD study: expression of HIF-2α regulated genes in 786-O tumor xenografts by qRT-PCR; assay type: in vivo, SCID/Biege mice; conditions: 10 mg/kg oral gavage, six doses at 12 hour interval, 12 hours post last dose
Description: as §1

Compound	EC50 (786-O-Hif-Luc cells) [nM]	IC50 [1] [nM]	EC50 (786-O cells) [nM]	level of human VEGFA in plasma of 786-O xenograft bearing mice (human VEGFA)	mRNA levels of HIF-2α target genes (VEGF, PAI-1, CCND1) in 786-O xenografts [2]
O[C@H]1c2c(C(F)(F)F)ncc(OC3CC(F)(F)C3)c2C[C@H]1F [Compound 1, (6R,7S)-4-(3,3-difluorocyclobutoxy)-6-fluoro-1-(trifluoromethyl)-6,7-dihydro-5H-cyclopenta[c]pyridin-7-ol]	< 50	< 50	< 50		
O[C@@H]1CCc2c(OC3CC(F)(F)C3)cnc(C(F)(F)F)c21 [Compound 2, (R)-4-(3,3-difluorocyclobutoxy)-1-(trifluoromethyl)-6,7-dihydro-5H-cyclopenta[c]pyridin-7-ol]	250 to 1000	< 50			
N#Cc1cc(F)cc(Oc2ncc(Br)c3c2C(F)C(F)(F)C3F)c1 (stereo not shown) [Compound 16]		> 1000			
CS(=O)(=O)c1cnc(Oc2cc(F)cc(C#N)c2)c2c1[C@H](O)[C@H](F)[C@@H]2F [Compound 18]		> 1000			
CS(=O)(=O)c1cnc(Oc2cc(F)cc(C#N)c2)c2c1[C@H](O)[C@H](F)C2 [Compound 19]		> 1000			
CC(C)Oc1cnc(C(F)(F)F)c2c1C[C@H](F)[C@H]2O [Compound 26]		> 1000			
CS(=O)(=O)c1cnc(Oc2cc(F)cc(C#N)c2)c2c1C(O)CC2 (stereo not shown) [Compound 28]		> 1000			
O[C@H]1c2c(C(F)F)ncc(OC3CC(F)(F)C3)c2C[C@H]1F [Compound 30]		> 1000			
O[C@H]1c2c(C(F)F)ncc(OC3CC(F)(F)C3)c2C[C@@H]1F [Compound 31]		> 1000			
N#Cc1cc(F)cc(Oc2ncc(C(F)(F)F)c3c2CCC3O)c1 (stereo not shown) [Compound 32]		> 1000			
N#Cc1cc(F)cc(Oc2ncc(C(F)(F)F)c3c2C[C@@H](F)[C@H]3O)c1 [Compound 33, 3-fluoro-5-(((5S,6R)-6-fluoro-5-hydroxy-4-(trifluoromethyl)-6,7-dihydro-5H-cyclopenta[c]pyridin-1-yl)oxy)benzonitrile]		> 1000			
O[C@H]1c2c(C(F)(F)F)ncc(-c3ccccc3)c2C[C@H]1F [Compound 35]		> 1000			
O[C@H]1c2c(C(F)(F)F)ncc(OC3CC(F)(F)C3)c2[C@@H](F)[C@H]1F [Compound 37, (5R,6S,7S)-4-(3,3-difluorocyclobutoxy)-5,6-difluoro-1-(trifluoromethyl)-6,7-dihydro-5H-cyclopenta[c]pyridin-7-ol]	< 50	< 50	< 50	decreased; also recorded: significant reduction	decreased; also recorded: significant reduction
O/N=C1/c2c(C(F)(F)F)ncc(OCC(F)F)c2CC1F (stereo not shown) [Compound 38]		> 1000			
OC1CCc2c(OCC(F)F)cnc(C3(C(F)(F)F)CC3)c21 (stereo not shown) [Compound 39]		> 1000			
N#Cc1cc(F)cc(Oc2nnc(C(F)(F)F)c3c2CCC3O)c1 (stereo not shown) [Compound 42, 3-fluoro-5-((5-hydroxy-4-(trifluoromethyl)-6,7-dihydro-5H-cyclopenta[d]pyridazin-1-yl)oxy)benzonitrile]	> 1000	> 1000			

Second part, led by results:

EC50 (786-O-Hif-Luc cells) [nM]	IC50 [1] [nM]	EC50 (786-O cells) [nM]	Compound	level of human VEGFA in plasma of 786-O xenograft bearing mice (human VEGFA)	mRNA levels of HIF-2α target genes (VEGF, PAI-1, CCND1) in 786-O xenografts [2]
250 to 1000	250 to 1000		N#Cc1cc(F)cc(-c2cnc(C(F)(F)F)c3c2C[C@@H](F)[C@H]3O)c1 (racemic) [Compound 7, 3-fluoro-5-((6R,7S)-6-fluoro-7-hydroxy-1-(trifluoromethyl)-6,7-dihydro-5H-cyclopenta[c]pyridin-4-yl)benzonitrile]		
< 50	< 50	50 to 249	N#Cc1cc(F)cc(Oc2cnc(C(F)(F)F)c3c2C[C@@H](F)[C@H]3O)c1 [Compound 3, 3-fluoro-5-(((6R,7S)-6-fluoro-7-hydroxy-1-(trifluoromethyl)-6,7-dihydro-5H-cyclopenta[c]pyridin-4-yl)oxy)benzonitrile]		
250 to 1000	50 to 249		CS(=O)(=O)c1ncc(Oc2cc(F)cc(C#N)c2)c2c1[C@H](O)[C@H](F)C2 [Compound 4, 3-fluoro-5-(((6R,7S)-6-fluoro-7-hydroxy-1-(methylsulfonyl)-6,7-dihydro-5H-cyclopenta[c]pyridin-4-yl)oxy)benzonitrile]		
> 1000	> 1000		O=S(=O)(c1cnc(Oc2cc(F)cc(F)c2)c2c1CCC2)C(F)F [Compound 6, 4-(difluoromethylsulfonyl)-1-(3,5-difluorophenoxy)-6,7-dihydro-5H-cyclopenta[c]pyridine]		
250 to 1000	< 50		N#Cc1cc(F)cc(Oc2cnc(C(F)(F)F)c3c2CCC3O)c1 (stereo not shown) [Compound 8]		
50 to 249	< 50	250 to 1000	O[C@H]1c2c(C(F)(F)F)ncc(OCC(F)F)c2C[C@H]1F [Compound 9]		
> 1000	> 1000		O[C@@H]1CCc2c(OCC(F)F)cnc(C(F)(F)F)c21 [Compound 10]		
	> 1000		CS(=O)(=O)c1ncc(OC2CC(F)(F)C2)c2c1[C@H](O)[C@@H](F)C2 [Compound 11]		
> 1000	250 to 1000		CS(=O)(=O)c1ncc(OC2CC(F)(F)C2)c2c1[C@H](O)[C@H](F)C2 [Compound 12]		
50 to 249	50 to 249		O[C@H]1c2c(C(F)(F)F)ncc(Oc3cncc(F)c3)c2C[C@H]1F [Compound 13]		
< 50	< 50	< 50	O[C@H]1c2c(C(F)(F)F)ncc(O[C@H]3C[C@H](F)C3)c2C[C@H]1F [Compound 14]		
> 1000	50 to 249		N#Cc1cc(F)cc(Oc2ncc(Br)c3c2[C@@H](F)C(F)(F)[C@H]3O)c1 [Compound 17]		
> 1000	< 50		CS(=O)(=O)c1cnc(Oc2cc(F)cc(C#N)c2)c2c1[C@H](O)C(F)(F)[C@@H]2F [Compound 20]		
> 1000	250 to 1000		CS(=O)(=O)c1cnc(Oc2cc(F)cc(C#N)c2)c2c1[C@H](O)C(F)(F)[C@H]2F [Compound 21]		
< 50	< 50	< 50	N#Cc1cc(F)cc(Oc2cnc(C(F)(F)F)c3c2[C@@H](F)[C@@H](F)[C@H]3O)c1 [Compound 22, 3-(((5R,6S,7S)-5,6-difluoro-7-hydroxy-1-(trifluoromethyl)-6,7-dihydro-5H-cyclopenta[c]pyridin-4-yl)oxy)-5-fluorobenzonitrile]	decreased; also recorded: significant reduction	decreased; also recorded: significant reduction
50 to 249	< 50		O[C@H]1c2c(C(F)(F)F)ncc(OCCCF)c2C[C@H]1F [Compound 23]		
	50 to 249		O[C@H]1c2c(C(F)(F)F)ncc(OCCCF)c2C[C@@H]1F [Compound 24]		
	250 to 1000		CC(C)Oc1cnc(C(F)(F)F)c2c1C[C@@H](F)[C@H]2O [Compound 25]		
50 to 249	50 to 249		O[C@H]1c2c(C(F)(F)F)ncc(OCC(F)F)c2C[C@@H]1F [Compound 27]		
50 to 249	< 50	50 to 249	N#Cc1cncc(Oc2cnc(C(F)(F)F)c3c2[C@@H](F)[C@@H](F)[C@H]3O)c1 [Compound 34, 5-(((5R,6S,7S)-5,6-difluoro-7-hydroxy-1-(trifluoromethyl)-6,7-dihydro-5H-cyclopenta[c]pyridin-4-yl)oxy)nicotinonitrile]	decreased; also recorded: significant reduction	decreased; also recorded: significant reduction
	250 to 1000		O[C@H]1c2c(C(F)(F)F)ncc(-c3cc(F)cc(F)c3)c2C[C@H]1F [Compound 36]		
< 50	< 50		O[C@H]1c2c(C(F)(F)F)ncc(Oc3cncc(F)c3)c2[C@@H](F)[C@H]1F [Compound 40]		
